Assays:
[1] = test system: Erysiphe graminis f.sp. hordei; experiment: Activity against barley powdery mildew, direct therapeutic (EGT); assay type: in vivo; conditions: direct therapeutic foliar spray, 600 ppm, up to 7 days
Description: (e) Activity against barley powdery mildew (Erysiphe graminis f.sp. hordei; EGT) The test is a direct therapeutic foliar spray. Leaves of barley seedlings, (cv. Golden Promise) at the single leaf stage are inoculated by dusting with mildew conidia one day prior to treatment with the test compound. The inoculated plants are kept overnight at glasshouse ambient temperature (18° C.) and humidity (40%) prior to treatment. The plants are sprayed with the test compound at a dosage of 600 ppm using an automated sprayline as described under (a). After drying, plants are returned to a compartment at 18° C. and 40% humidity for up to 7 days. Assessment is based on the percentage of leaf area covered by sporulation compared with that on leaves of control plants. The extent of disease control in all the above tests is expressed as a rating compared with either an untreated control or a diluent-sprayed-control, according to the criteria: […]

Plasmopara viticola = experiment: Antisporulant activity against vine downy mildew (PVA); assay type: in vivo; conditions: vine leaves, antisporulant foliar spray, 600 ppm, 750 l/ha
Description: (a) Antisporulant activity against vine downy mildew (Plasmopara viticola; PVA) The test is a direct antisporulant one using a foliar spray. The lower surfaces of leaves of whole vine plants (cv Cabernet Sauvignon), approximately 8 cm high, are inoculated by spraying with an aqueous suspension containing 5×10^4 zoosporangia/ml. The inoculated plants are kept for 24 hours at 21° C. in a high humidity compartment, then 24 hours at glasshouse ambient temperature and humidity. Infected leaves are sprayed on their lower surfaces with a solution of active material in 1:1 water/acetone containing 0.04% "TWEEN 20" (Trade Mark; a polyoxyethylene sorbitan ester surfactant). Plants are treated using an automated sprayline with an atomising nozzle. The concentration of the compound is 600 ppm, and the spray volume is 750 l/ha. After spraying, the plants are returned to normal glasshouse conditions for 96 hours and are then transferred to the high humidity compartment for 24 hours to induce sporulation. Assessment is based on the percentage of the leaf area covered by sporulation compared with that on control leaves. The extent of disease control in all the above tests is expressed as a rating compared with either an untreated control or a diluent-sprayed-control, according to the criteria: […]

Venturia inaequalis = experiment: Activity against apple scab in-vitro (VII); assay type: cell-based; conditions: 10 ppm, 10 days, 20° C., mycelial growth
Description: (j) Activity against apple scab in-vitro (Venturia inaequalis: VII) This test measures the in-vitro activity of compounds against V. inaequalis that causes apple scab. The test compound in acetone is added into 4 ml aliquots of half strength Potato Dextrose Broth dispensed in 25-compartment petri dishes to give final concentrations of 10 ppm. The fungal inoculum consists of mycelial fragments and spores of V. inaequalis grown on malt agar and added to the broth to provide 5×10^4 propagules/ml broth. Petri dishes are incubated at 20° C. for 10 days until the assessment of mycelial growth. The extent of disease control in all the above tests is expressed as a rating compared with either an untreated control or a diluent-sprayed-control, according to the criteria: […]

Botrytis cinerea = experiment: Direct protectant activity against broad bean grey mould (BCB); assay type: in vivo; conditions: direct protectant foliar spray, 600 ppm, 4 days
Description: (c) Direct protectant activity against broad bean grey mould (Botrytis cinerea; BCB) The test is a direct protectant foliar spray. The upper surfaces of leaves of broad bean plants with two leaf pairs (cv The Sutton) are sprayed with the test compound at a dosage of 600 ppm using an automated sprayline as described under (a). 24 hours after spraying the leaves are inoculated with an aqueous suspension containing 10^6 conidia/ml. For 4 days after inoculation plants are kept in a high humidity compartment at 22° C. Disease is assessed 4 days after inoculation, based on the percentage of leaf surface area covered by lesions. The extent of disease control in all the above tests is expressed as a rating compared with either an untreated control or a diluent-sprayed-control, according to the criteria: […]

[2] = test system: Pseudocercosporella herpotrichoides; experiment: Activity against wheat eyespot in-vitro (PHI); assay type: cell-based; conditions: 10 ppm, 10 days, 20° C., mycelial growth
Description: (h) Activity against wheat eyespot in-vitro (Pseudocercosporella herpotrichoides; pHI) This test measures the in vitro activity of compounds against the fungus causing wheat eyespot. The test compound is dissolved or suspended in acetone and is added into 4 ml aliquots of half strength Potato Dextrose Broth (PDB) dispended in 25-compartment petri dishes to give a final concentration of 10ppm. The fungal inoculum consists of mycelial fragments of P. herpotrichoides grown in half strength PDB in shaken flasks and added to the broth to provide 5×10^4 fragments/ml broth. Petri dishes are incubated at 20° C. for 10 days until the assessment of mycelial growth. The extent of disease control in all the above tests is expressed as a rating compared with either an untreated control or a diluent-sprayed-control, according to the criteria: […]

Leptosphaeria nodorum = experiment: Activity against wheat leafspot (LN); assay type: in vivo; conditions: direct therapeutic foliar spray, 600 ppm, 6-8 days
Description: (d) Activity against wheat leafspot (Leptosphaeria nodorum; LN.) The test is a direct therapeutic foliar spray. Leaves of wheat plants (cv Norman), at the single leaf stage, are inoculated by spraying with an aqueous suspension containing 1.5×10^6 conidia/ml. The inoculated plants are kept for 24 hours in a high humidity compartment prior to treatment. The plants are sprayed with a solution of the test compound at a dosage of 600 ppm using an automated sprayline as described under (a). After drying, the plants are kept for 6-8 days at 22° C. and moderate humidity (70%). Assessment is based on the density of lesions per leaf compared with that on leaves of control plants. The extent of disease control in all the above tests is expressed as a rating compared with either an untreated control or a diluent-sprayed-control, according to the criteria: […]

Alternaria solani = experiment: Activity against tomato early blight (AS); assay type: in vivo; conditions: Table VI; tomato seedlings, contact prophylactic foliar spray, 4 days
Description: b) Activity against tomato early blight (Alternaria solani; AS) This test measures the contact prophylactic activity of test compounds applied as a foliar spray. Tomato seedlings (cv Outdoor Girl) are grown to the stage at which the second true leaf is expanded. The plants are treated using an automated sprayline as described under (a). Test compounds are applied as solutions or suspensions in a mixture of acetone and water (50:50 v/v) containing 0.04% surfactant ("TWEEN 20"--Trade Mark). After drying the plants are kept for 24 hours in a glasshouse at 20° C. and 40% R.H., followed by inoculation of the leaf upper surfaces with a suspension of A. solani conidia containing 10^4 spores/ml. For 4 days after inoculation plants are kept moist in a humidity compartment at 21° C. Disease is assessed 4 days after inoculation, based on the percentage of leaf surface area covered by lesions when compared with control plants. The extent of disease control in all the above tests is expressed as a rating compared with either an untreated control or a diluent-sprayed-control, according to the criteria: […]

Pyricularia oryzae = assay type: in vivo; conditions: rice seedlings, direct therapeutic foliar spray, 600 ppm, 4-5 days
Rhizoctonia solani = experiment: Activity against Rhizoctonia in-vitro (RSI); assay type: cell-based; conditions: 10 ppm, 10 days, 20° C., mycelial growth
Description: (i) Activity against Rhizoctonia in-vitro (Rhizoctonia solani: RSI) This test measures the in-vitro activity of compounds against R. solani that causes stem and root rots. The test compound in acetone is added into 4 ml aliquots of half strength Potato Dextrose Broth dispensed in 25-compartment petri dishes to give final concentrations of 10 ppm. The fungal inoculum consists of mycelial fragments of R. solani growth in half strength PDB in shaken culture flasks and added to the broth to provide 5×10^4 fragments/ml broth. Petri dishes are incubated at 20° C. for 10 days until the assessment of mycelial growth. The extent of disease control in all the above tests is expressed as a rating compared with either an untreated control or a diluent-sprayed-control, according to the criteria: […]

[3] = test system: Erysiphe graminis f.sp. hordei; experiment: Direct protectant activity against barley powdery mildew (EGP); assay type: in vivo; conditions: direct protectant foliar spray, 8 days
Description: (f) Direct protectant activity against barley powdery mildew (Erysiphe graminis f.sp. hordei; EGP) The test is a direct protectant foliar spray. Leaves of barley seedlings (cv Golden Promise) at the single leaf stage are sprayed with the test compound as described under (a). After drying, the plants are kept for 24 hours in a glasshouse at 18° C. and 40% R.H. Then the plants are inoculated by dusting with mildew conidia and kept at 18° C. and 40% R.H. for 8 days. Assessment is based on the percentage of leaf area covered by sporulation compared with that on leaves of control plants. The extent of disease control in all the above tests is expressed as a rating compared with either an untreated control or a diluent-sprayed-control, according to the criteria: […]

Phytophthora infestans = assay type: in vivo; conditions: tomato, direct protectant foliar spray

SMILES | disease control rating EGT [1] | disease control rating PVA (Plasmopara viticola) | disease control rating VII (Venturia inaequalis) | disease control rating BCB (Botrytis cinerea) | disease control rating PHI [2] | disease control rating LN (Leptosphaeria nodorum) | disease control rating AS (Alternaria solani) | disease control rating PO (Pyricularia oryzae) | disease control rating RSI (Rhizoctonia solani) | disease control rating EGP [3] | disease control rating PIP (Phytophthora infestans)
CC1CC(C)CN(C2COC3(CCC(C(C)(C)CC(C)(C)C)CC3)C2)C1 (stereo not shown) [Compound 136] | 2 (greater than 80% disease control) | 0 (less than 50% disease control) | 0 (less than 50% disease control) | 0 (less than 50% disease control) | 2 (greater than 80% disease control) | 0 (less than 50% disease control) | 0 (less than 50% disease control) | 0 (less than 50% disease control) | 2 (greater than 80% disease control) | 2 (greater than 80% disease control) | –
CCC(CC)NC1COC2(CCC(C(C)(C)C)CC2)C1 (stereo not shown) [Compound 83] | 2 (greater than 80% disease control) | 0 (less than 50% disease control) | 0 (less than 50% disease control) | 1 (about 50-80% disease control) | 0 (less than 50% disease control) | 0 (less than 50% disease control) | 0 (less than 50% disease control) | 0 (less than 50% disease control) | 0 (less than 50% disease control) | 2 (greater than 80% disease control) | 0 (less than 50% disease control)
CC(C)(C)C1CCC2(CC1)CC(NCc1ccc(Cl)cc1)CO2 (stereo not shown) [Compound 1] | 2 (greater than 80% disease control) | 0 (less than 50% disease control) | 0 (less than 50% disease control) | 0 (less than 50% disease control) | 1 (about 50-80% disease control) | 0 (less than 50% disease control) | 0 (less than 50% disease control) | 0 (less than 50% disease control) | 0 (less than 50% disease control) | – | 0 (less than 50% disease control)
CCCCCCNC1COC2(CCC(C(C)(C)C)CC2)C1 (stereo not shown) [Compound 2] | 2 (greater than 80% disease control) | 0 (less than 50% disease control) | 0 (less than 50% disease control) | 0 (less than 50% disease control) | 1 (about 50-80% disease control) | 0 (less than 50% disease control) | 0 (less than 50% disease control) | 0 (less than 50% disease control) | 1 (about 50-80% disease control) | – | 0 (less than 50% disease control)
CC1CN(C2COC3(CCC(C(C)(C)C)CC3)C2)CC(C)O1 (stereo not shown) [Compound 3] | 1 (about 50-80% disease control) | 0 (less than 50% disease control) | 2 (greater than 80% disease control) | 0 (less than 50% disease control) | 2 (greater than 80% disease control) | 0 (less than 50% disease control) | 0 (less than 50% disease control) | 0 (less than 50% disease control) | 0 (less than 50% disease control) | – | 0 (less than 50% disease control)
CC1CCN(C2COC3(CCC(C(C)(C)CC(C)(C)C)CC3)C2)CC1 (stereo not shown) [Compound 135] | 2 (greater than 80% disease control) | 0 (less than 50% disease control) | 1 (about 50-80% disease control) | 0 (less than 50% disease control) | 2 (greater than 80% disease control) | 1 (about 50-80% disease control) | 0 (less than 50% disease control) | 0 (less than 50% disease control) | 2 (greater than 80% disease control) | 2 (greater than 80% disease control) | –

From patent publication US5591741A, “Fungicidal spiroheterocyclic derivatives” (American Cyanamid Company, priority 1993, dated 1997)
